This experiment addresses T1, PI3Kδ (Homo sapiens, UniProt O00329).
T1 construct: endogenous in cells; host or cells: Raji cells
In words: Cell Based Assay for PI3Kδ (AKT phosphorylation, AlphaScreen SureFire, anti-IgM stimulated Raji cells). The conditions noted are these: compounds 1 h, anti-IgM (3 μg/mL) 30 min, phosphorylation of AKT, read-out: PI3Kδ inhibition IC50. How it is done: [formula] C) Cell Based Assay for PI3Kδ
Raji cells were maintained in RPMI-1640 (Sigma) supplemented with 10% fetal bovine serum (heat inactivated) (FBS, Sigma), 100 U penicillin/mL, and […] streptomycin and incubated at 37° C. and 5% CO2. Cells were centrifuged and resuspended in a complete medium. The required numbers of cells were transferred to a tissue culture flask containing medium without serum for 1 h at 37° C., 5% CO2. Following 1 h serum starvation, cells were centrifuged and resuspended in Hank's Balanced Salt Solution (HBSS, Sigma) and seeded in at a density of 1 million cells/well in 96-well clear bottom plates. The cells were treated with test compounds for 1 h at 37° C., 5% CO2. Cells were then stimulated with anti-IgM (3 μg/mL) for 30 min. After Stimulation, cells were lysed with 15 μL of 5× lysis buffer and the plate was shaken on an orbital plate shaker at approximately 300 rpm for 10 min. AlphaScreen® SureFire® Cell-based Assay (Perkin-Elmer, Waltham, Mass., USA) was performed to measure phosphorylation of AKT, in the cells according to the manufacturer's instructions. The luminescence was measured using an alpha technology-compatible plate reader BMG Labtech, Germany) at 520-620 nm. Percentage inhibition was calculated according to formula: […]
IC50 values were calculated by plotting % inhibition against the respective concentrations of test compounds using GraphPad Prism 5.
Background: Bead proximity is the source of the signal in Alpha formats.

The structures appear in SMILES notation.

T1 sequence (O00329 whole entry): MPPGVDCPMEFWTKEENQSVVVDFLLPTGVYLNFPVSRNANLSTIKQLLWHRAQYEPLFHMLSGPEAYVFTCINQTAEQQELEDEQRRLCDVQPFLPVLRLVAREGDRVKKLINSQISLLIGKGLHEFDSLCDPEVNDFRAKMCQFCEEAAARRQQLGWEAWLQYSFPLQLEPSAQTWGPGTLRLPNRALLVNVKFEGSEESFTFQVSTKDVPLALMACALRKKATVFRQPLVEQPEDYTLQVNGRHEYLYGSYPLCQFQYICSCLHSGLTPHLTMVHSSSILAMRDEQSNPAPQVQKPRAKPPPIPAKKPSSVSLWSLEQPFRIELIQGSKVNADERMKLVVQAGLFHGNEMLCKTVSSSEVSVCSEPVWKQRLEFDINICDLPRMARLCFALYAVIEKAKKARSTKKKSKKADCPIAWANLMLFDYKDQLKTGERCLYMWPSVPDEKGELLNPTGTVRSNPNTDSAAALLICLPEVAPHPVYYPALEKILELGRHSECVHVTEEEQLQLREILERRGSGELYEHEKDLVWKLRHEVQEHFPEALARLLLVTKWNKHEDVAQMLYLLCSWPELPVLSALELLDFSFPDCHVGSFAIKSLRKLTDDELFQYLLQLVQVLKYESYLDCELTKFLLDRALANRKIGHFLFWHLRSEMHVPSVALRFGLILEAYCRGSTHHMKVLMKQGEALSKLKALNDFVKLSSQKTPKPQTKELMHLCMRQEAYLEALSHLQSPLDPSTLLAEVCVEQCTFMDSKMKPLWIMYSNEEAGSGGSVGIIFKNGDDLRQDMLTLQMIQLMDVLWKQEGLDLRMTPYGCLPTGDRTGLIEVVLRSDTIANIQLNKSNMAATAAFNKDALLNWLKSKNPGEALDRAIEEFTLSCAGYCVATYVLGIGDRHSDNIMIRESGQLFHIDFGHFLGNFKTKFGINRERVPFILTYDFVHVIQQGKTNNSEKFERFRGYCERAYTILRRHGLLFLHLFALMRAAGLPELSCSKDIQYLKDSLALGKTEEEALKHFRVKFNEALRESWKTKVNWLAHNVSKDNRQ
T1 sequence (P27986 whole entry partner): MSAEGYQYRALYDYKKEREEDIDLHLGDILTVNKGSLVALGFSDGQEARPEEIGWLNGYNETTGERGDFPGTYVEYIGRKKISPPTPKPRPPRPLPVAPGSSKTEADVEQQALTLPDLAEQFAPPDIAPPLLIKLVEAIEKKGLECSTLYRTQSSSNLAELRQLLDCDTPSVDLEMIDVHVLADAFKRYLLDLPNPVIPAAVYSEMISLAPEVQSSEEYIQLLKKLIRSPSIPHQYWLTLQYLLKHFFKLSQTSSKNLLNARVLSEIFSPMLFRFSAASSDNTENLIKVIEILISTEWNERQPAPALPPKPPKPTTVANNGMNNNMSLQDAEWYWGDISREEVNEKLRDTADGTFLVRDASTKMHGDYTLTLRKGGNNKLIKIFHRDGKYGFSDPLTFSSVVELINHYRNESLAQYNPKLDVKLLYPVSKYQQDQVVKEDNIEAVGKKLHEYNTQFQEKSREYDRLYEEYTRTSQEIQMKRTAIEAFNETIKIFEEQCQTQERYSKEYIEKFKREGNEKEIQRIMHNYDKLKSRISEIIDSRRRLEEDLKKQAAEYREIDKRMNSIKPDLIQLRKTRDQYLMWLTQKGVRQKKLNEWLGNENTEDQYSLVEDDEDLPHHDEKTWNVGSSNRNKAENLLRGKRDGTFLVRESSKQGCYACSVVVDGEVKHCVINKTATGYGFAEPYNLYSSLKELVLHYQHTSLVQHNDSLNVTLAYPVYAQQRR

A word on the IC50: it is the concentration that gives 50% inhibition. `Cc1cc(F)cc(-c2c([C@H](C)Nc3ncnc(N)c3C#N)cc3ccc(F)cn3c2=O)c1` [Compound 29, (S)-4-amino-6-((1-(7-fluoro-3-(3-fluoro-5-methylphenyl)-4-oxo-4H-quinolizin-2-yl)ethyl)amino)pyrimidine-5-carbonitrile]: the IC50 was in the range of 11 to 50 nM.

As to `Cc1cccc(-c2c([C@H](C)Nc3ncnc(N)c3C#N)cc3ccc(F)cn3c2=O)c1` [Compound 31, (S)-4-amino-6-((1-(7-fluoro-4-oxo-3-(m-tolyl)-4H-quinolizin-2-yl)ethyl)amino)pyrimidine-5-carbonitrile], the IC50 is 11 to 50 nM.

For `C[C@H](Nc1nc(N)nc2[nH]cnc12)c1cc2ccc(F)cn2c(=O)c1-c1ccccc1` [Compound 33, (S)-2-(1-((2-amino-9H-purin-6-yl)amino)ethyl)-7-fluoro-3-phenyl-4H-quinolizin-4-one], the IC50 is 0.1 to 10 nM.

On to `C[C@H](Nc1ncnc(N)c1C#N)c1cc2ccc(F)cn2c(=O)c1-c1cccc(OC(F)(F)F)c1` [Compound 34, (S)-4-amino-6-((1-(7-fluoro-4-oxo-3-(3-(trifluoromethoxy)phenyl)-4H-quinolizin-2-yl)ethyl)amino)pyrimidine-5-carbonitrile], for which the IC50 lay within 11 to 50 nM.

As to `C[C@H](Nc1ncnc(N)c1C#N)c1cc2ccc(F)cn2c(=O)c1-c1ccc(F)cc1` [Compound 36, (S)-4-amino-6-((1-(7-fluoro-3-(4-fluorophenyl)-4-oxo-4H-quinolizin-2-yl)ethyl)amino)pyrimidine-5-carbonitrile], the IC50 fell in the range of 11 to 50 nM.

In the case of `C[C@H](Nc1ncnc2[nH]cc(F)c12)c1cc2ccc(F)cn2c(=O)c1-c1ccccc1` [Compound 40, (S)-7-fluoro-2-(1-((5-fluoro-7H-pyrrolo[2,3-d]pyrimidin-4-yl)amino)ethyl)-3-phenyl-4H-quinolizin-4-one], the IC50 was 0.1 to 10 nM.

Consider `C[C@H](Nc1ncnc(N)c1C#N)c1cc2ccc(F)cn2c(=O)c1-c1cc(F)cc(F)c1` [Compound 48, (S)-4-amino-6-((1-(3-(3,5-difluorophenyl)-7-fluoro-4-oxo-4H-quinolizin-2-yl)ethyl)amino)pyrimidine-5-carbonitrile], for which the IC50 is 0.1 to 10 nM.

`C[C@H](Nc1ncnc2[nH]cnc12)c1cc2ccc(F)cn2c(=O)c1-c1cc(F)cc(F)c1` [Compound 50, (S)-2-(1-((9H-purin-6-yl)amino)ethyl)-3-(3,5-difluorophenyl)-7-fluoro-4H-quinolizin-4-one]: the IC50 fell in the range of 11 to 50 nM.

For `C[C@H](Nc1nc(N)nc2[nH]cnc12)c1cc2ccc(F)cn2c(=O)c1-c1cc(F)cc(F)c1` [Compound 51, (S)-2-(1-((2-amino-9H-purin-6-yl)amino)ethyl)-3-(3,5-difluorophenyl)-7-fluoro-4H-quinolizin-4-one], the IC50 lay in the range of 11 to 50 nM.

`C[C@H](Nc1ncnc2scnc12)c1cc2ccc(F)cn2c(=O)c1-c1ccccc1` [Compound 52, (S)-7-fluoro-3-phenyl-2-(1-(thiazolo[5,4-d]pyrimidin-7-ylamino)ethyl)-4H-quinolizin-4-one]: the IC50 lay within 0.1 to 10 nM.

On to `C[C@H](Nc1nc(N)nc(Cl)c1C#N)c1cc2ccc(F)cn2c(=O)c1-c1ccccc1` [Compound 53, (S)-2-amino-4-chloro-6-((1-(7-fluoro-4-oxo-3-phenyl-4H-quinolizin-2-yl)ethyl)amino)pyrimidine-5-carbonitrile], for which the IC50 was in the range of 0.1 to 10 nM.

On to `C[C@H](Nc1ncnc2cccnc12)c1cc2ccc(F)cn2c(=O)c1-c1ccccc1` [Compound 54, (S)-7-fluoro-3-phenyl-2-(1-(pyrido[3,2-d]pyrimidin-4-ylamino)ethyl)-4H-quinolizin-4-one], for which the IC50 fell in the range of 0.1 to 10 nM.

Regarding `CC(c1cc2ccc(F)cn2c(=O)c1-c1ccccc1)n1nc(-c2cc(O)cc(F)c2)c2c(N)ncnc21` (stereo not drawn) [Compound 59, 2-(1-(4-amino-3-(3-fluoro-5-hydroxyphenyl)-1H-pyrazolo[3,4-d]pyrimidin-1-yl)ethyl)-7-fluoro-3-phenyl-4H-quinolizin-4-one], the IC50 was in the range of 0.1 to 10 nM.

Take `CC(c1cc2ccc(F)cn2c(=O)c1-c1ccccc1)n1nc(-c2ccc(O)c(F)c2)c2c(N)ncnc21` (stereo not drawn) [Compound 60, 2-(1-(4-amino-3-(3-fluoro-4-hydroxyphenyl)-1H-pyrazolo[3,4-d]pyrimidin-1-yl)ethyl)-7-fluoro-3-phenyl-4H-quinolizin-4-one]: the IC50 was 11 to 50 nM.

`CC(c1cc2ccc(F)cn2c(=O)c1-c1ccccc1)n1nc(-c2ccc(F)c(O)c2)c2c(N)ncnc21` (stereo not drawn) [Compound 61, 2-(1-(4-amino-3-(4-fluoro-3-hydroxyphenyl)-1H-pyrazolo[3,4-d]pyrimidin-1-yl)ethyl)-7-fluoro-3-phenyl-4H-quinolizin-4-one]: the IC50 lay in the range of 0.1 to 10 nM.

As for `CC(c1cc2ccc(F)cn2c(=O)c1-c1ccccc1)n1nc(-c2cccc(O)c2)c2c(N)ncnc21` (stereo not drawn) [Compound 62, 2-(1-(4-amino-3-(3-hydroxyphenyl)-1H-pyrazolo[3,4-d]pyrimidin-1-yl)ethyl)-7-fluoro-3-phenyl-4H-quinolizin-4-one], the IC50 was 0.1 to 10 nM.

As for `CC(c1cc2ccc(F)cn2c(=O)c1-c1ccccc1)n1cc(-c2cc(O)cc(F)c2)c2c(N)ncnc21` (stereo not drawn) [Compound 63, 2-(1-(4-amino-5-(3-fluoro-5-hydroxyphenyl)-7H-pyrrolo[2,3-d]pyrimidin-7-yl)ethyl)-7-fluoro-3-phenyl-4H-quinolizin-4-one], the half-maximal inhibitory concentration (IC50) lay within 0.1 to 10 nM.

Regarding `CC(c1cc2ccc(F)cn2c(=O)c1-c1ccccc1)n1nc(-c2ccc3c(c2)CC(=O)N3)c2c(N)ncnc21` (stereo not drawn) [Compound 65, 2-(1-(4-amino-3-(2-oxoindolin-5-yl)-1H-pyrazolo[3,4-d]pyrimidin-1-yl)ethyl)-7-fluoro-3-phenyl-4H-quinolizin-4-one], the IC50 was in the range of 51 to 250 nM.

Source of the values: patent US9944639B2, “Quinolizinone derivatives as PI3K inhibitors” (Lupin Limited, priority 2014, dated 2018).
